Results as given in EPA's ToxValDB 9.5.
“And” between values parts separate entries of the source, which are not always exact repeats. Identical values can stand only once.

How the values were obtained:
Oryctolagus sp. = conditions: for LD50: acute; for LOAEL: Dutch-belted
Rattus norvegicus [1] = conditions: for LC50 / LD50: acute
Rattus norvegicus [2] = test system: Rattus norvegicus
Rattus norvegicus [3] = conditions: subchronic, oral; for NOEL: gavage, M, Sprague-Dawley
Mus musculus = conditions: chronic; duration: 81 weeks; oral; M/F; B6C3F1; respiratory
Rattus norvegicus [4] = conditions: uterotrophic; duration: 3 days; injection; subcutaneous; Active
[5] = developmental, duration: 10 days, oral, gavage, Sprague-Dawley
[6] = subchronic, duration: 30 days, oral, diet, Sprague-Dawley
[7] = reproduction developmental, oral, gavage, Sprague-Dawley, generation: F1
[8] = chronic, duration: 6 months, inhalation, Sprague-Dawley
[9] = short-term, duration: 14 days, oral, gavage, F, Fischer 344
[10] = short-term, duration: 14 days, oral, gavage, M, Fischer 344
[11] = subchronic, duration: 13 weeks, inhalation, F, Fischer 344
[12] = subchronic, duration: 13 weeks, inhalation, Fischer 344
[13] = subchronic, duration: 13 weeks, oral, gavage, F, Fischer 344
[14] = subchronic, duration: 13 weeks, oral, gavage, Fischer 344

## CN1C(=O)c2ccc(Oc3ccc(C(C)(C)c4ccc(Oc5ccc6c(c5)C(=O)N(C)C6=O)cc4)cc3)cc2C1=O
Oryctolagus sp.; developmental, duration: 12 days, oral, gavage, New Zealand
  NOAEC: > 1000 mg/kg-day
Oryctolagus sp.; reproduction developmental, duration: 12 days, oral, gavage, F, New Zealand
  NOAEL: > 1000 mg/kg-day
Oryctolagus sp.; reproduction developmental, duration: 13 days, oral, gavage, F, New Zealand
  NOAEC: > 1000 mg/kg-day
Oryctolagus sp.; reproduction developmental, duration: 13 days, oral, gavage, New Zealand
  NOAEC: > 1000 mg/kg-day
Rattus norvegicus [1]; [5]
  NOAEL: > 1000 mg/kg-day
Rattus norvegicus [1]; reproduction developmental, duration: 4 weeks, oral, gavage, Sprague-Dawley, generation: F0
  NOAEL: > 1000 mg/kg-day
Rattus norvegicus [1]; reproduction developmental, duration: 4 weeks, oral, gavage, Sprague-Dawley, generation: F1
  NOAEL: > 1000 mg/kg-day
Rattus norvegicus [1]; reproduction developmental, duration: 10 days, oral, gavage, Crl:CD(SD) BR
  NOAEL: > 1000 mg/kg-day
Rattus norvegicus [1]; [6]
  LOAEL (% diet): > 4
  NOAEL: ≥ 2750 mg/kg-day and ≤ 3160 mg/kg-day
  NOAEL (% diet): 4

## CCCBr [1-Bromopropane]
Rattus norvegicus [2]; short-term, duration: 3 weeks, inhalation, whole body, M, F-344, neurological
  NOAEL: 50.3 mg/m3

## Cc1cccc2ccccc12 [1-Methylnaphthalene]
Rattus norvegicus [3]; Absolute Organ Weight: Liver increase + Relative Organ Weight: Liver increase
  NOEL: 50 mg/kg-day
Mus musculus
  LOAEL: 71.6 mg/kg-day

## CCCCC(CC)CO[N+](=O)[O-] (stereo not drawn) [2-Ethylhexyl nitrate]
Oryctolagus sp.; short-term, duration: 15 days, dermal, semiocclusive, Albino
  NOAEL: > 500 mg/kg-day
Rattus norvegicus [1]; reproduction developmental, oral, gavage, Sprague-Dawley, generation: F0
  NOAEL: 20 mg/kg-day
Rattus norvegicus [1]; [7]
  NOAEL: 100 mg/kg-day
Rattus norvegicus [1]; short-term, duration: 14 days, inhalation, Sprague-Dawley
  NOAEL: 301 mg/m3
Rattus norvegicus [1]; short-term, duration: 28 days, oral, gavage, Sprague-Dawley
  NOAEL: 20 mg/kg-day

## Cc1ccccn1 [2-Methylpyridine]
Oryctolagus sp.; dermal
  LD50: ≥ 252 mg/kg and ≤ 500 mg/kg
Oryctolagus sp.; dermal, occlusive, New Zealand
  LD50: ≥ 200 mg/kg and ≤ 316 mg/kg
Rattus norvegicus [1]; inhalation
  LC50: ≥ 7620 mg/m3 and ≤ 15200 mg/m3
Rattus norvegicus [1]; inhalation, Sprague-Dawley
  LC50: < 13200 mg/m3
Rattus norvegicus [1]; oral, gavage, Sprague-Dawley
  LD50: 810 mg/kg and > 950 mg/kg
Rattus norvegicus [1]; [8]
  LOAEL: > 381 mg/m3
  NOAEL: ≥ 381 mg/m3

## CC(C)(c1ccc(Oc2ccc3c(c2)C(=O)OC3=O)cc1)c1ccc(Oc2ccc3c(c2)C(=O)OC3=O)cc1 [4,4'-(4,4'-Isopropylidenediphenoxy)bisphthalic dianhydride]
Oryctolagus sp.; dermal, New Zealand
  LD50: > 2000 mg/kg
Oryctolagus sp.; dermal, occlusive, New Zealand
  LD50: > 2000 mg/kg
Rattus norvegicus [1]; oral, gavage, Spartan
  LD50: > 5000 mg/kg
Rattus norvegicus [1]; oral, gavage, Sprague-Dawley
  LD50: > 5000 mg/kg
Rattus norvegicus [1]; [5]
  NOAEL: > 1000 mg/kg-day
Rattus norvegicus [1]; reproduction developmental, oral, gavage, Sprague-Dawley
  NOAEL: > 1000 mg/kg-day
Rattus norvegicus [1]; [7]
  NOAEL: > 1000 mg/kg-day
Rattus norvegicus [1]; [6]
  LOAEL (% diet): > 4
  NOAEL (% diet): 4

## Nc1ccc(Cc2ccc(N)cc2)cc1 [4,4'-Diaminobiphenyl methane]
Rattus norvegicus [3]; duration: 90 days, drinking water, M/F, Tif / RAlf, Deaths + Body Weight Changes: Weight gain + Food Consumption: decrease + Water Consumption: decrease + Hematology: RBC decrease, HGB …
  NOAEL: < 12.2 mg/kg-day
Rattus norvegicus [2]; acute, duration: 1 days, oral, gavage, M, Sprague-Dawley, hepatic
  LOAEL: 25 mg/kg-day
Rattus norvegicus [2]; subchronic, duration: 12 weeks, oral, gavage, M/F, Wistar, hepatic
  NOAEL: 8.3 mg/kg-day

## CCc1ccc(C)cc1 [4-Ethyltoluene]
Oryctolagus sp.; dermal, occlusive, New Zealand
  LD50: > 5000 mg/kg
Oryctolagus sp.; developmental, oral, gavage
  LOAEL: > 200 mg/kg-day
Oryctolagus sp.; reproduction developmental, oral, gavage, F
  LOAEL: 250 mg/kg-day
Rattus norvegicus [1]; inhalation, Sprague-Dawley
  LC50: > 19200 mg/m3
Rattus norvegicus [1]; oral, gavage, Sprague-Dawley
  LD50: 4850 mg/kg
Rattus norvegicus [1]; developmental, duration: 20 days, oral, gavage
  NOAEL: > 200 mg/kg-day
Rattus norvegicus [1]; [9]
  LOAEL: 400 mg/kg-day
  NOAEL: 200 mg/kg-day
Rattus norvegicus [1]; [10]
  LOAEL: 400 mg/kg-day
  NOAEL: 200 mg/kg-day
Rattus norvegicus [1]; [11]
  LOAEL: 4810 mg/m3
  NOAEL: 1500 mg/m3
Rattus norvegicus [1]; [12]
  LOAEL: 4810 mg/m3
  NOAEL: 1500 mg/m3
Rattus norvegicus [1]; [13]
  LOAEL: 300 mg/kg-day
  NOAEL: 100 mg/kg-day
Rattus norvegicus [1]; [14]
  LOAEL: 300 mg/kg-day
  NOAEL: 100 mg/kg-day

## Oc1ccc(-c2ccccc2)cc1 [4-Phenylphenol]
Rattus norvegicus [3]; Body Weight Changes: Reduced gain + Food Consumption: decrease + Hematology: WBC increase, NeutrophilSegment(%) decrease, Lymphocyte(%) …
  NOEL: 30 mg/kg-day
Rattus norvegicus [4]
  LEL: 10 mg/kg-day
